The record followed here is US10603345B2, “Pharmaceutical composition for treating respiratory disease” (Kunming Institute of Botany, The Chinese Academy of Sciences, priority 2015, dated 2020).

The structures appear in SMILES notation.

Format in all cases: in vivo
Assay [1] relates to CRP in serum in COPD model mouse. Briefly: Effect on CRP in serum in COPD model mouse. The following applies: ELISA, ig 7 d, dose/kg: dexamethasone 1 mg, Test group 1 50, 2 25, 3 10, picrinine 10, vallesamine 6, scholaricine 7, 19-epi-scholaricine 2 mg, x ± SD. As to the method: Animal source: 25˜30 g male ICR mouse, from laboratory animal department of Kunming Medical University, License No. SCXK (Dian) 2011-0004.
Method and route: lipopolysaccharide (LPS) plus smoke exposure was used for 30 days to induce mouse chronic obstructive pulmonary disease model; and after intragastrical administration for 7 d at a dose of 20 mL/kg, the animal was sacrificed at the eighth day.
Picrinine group (10 mg/kg), Vallesamine group (6.0 mg/kg), Scholaricine group (7.0 mg/kg), 19-epischolaricine group (2.0 mg/kg).
(§1) Sample preparation: all the samples were prepared by using 0.5% carboxymethylcellulose sodium (0.5% CMC-Na).
Group and dose: in Test group 1, the ratio of picrinine, vallesamine, scholaricine and 19-epischolaricine by weight was 25:19:20:4, and the other groups and doses thereof were as described in Example 10.
Test index: CRP in serum was used as index, and was determined by enzyme linked immunosorbent assay.
(In general: In an ELISA, binding on a coated surface is turned into a signal by an enzyme label.)

Assay [2] relates to KL-6 in serum of pulmonary fibrosis model mouse. Kind of assay: Effect on KL-6 in serum of pulmonary fibrosis model mouse. The following applies: ELISA, bleomycin pulmonary fibrosis mouse, ig 28 d, dose/kg: prednisone acetate 5 mg, Test group 1 50, 2 25, 3 12.5, picrinine 5.0, vallesamine 3.0, scholaricine 3.5, 19-epi-scholaricine 1.0 mg, x ± SD. The method, then:
(§2) Animal source: 30˜35 g male ICR mouse, from laboratory animal department of Kunming Medical University, License No. SCXK (Dian) 2011-0004.
(§3) Method and route: bleomycin was used to induce mouse pulmonary fibrosis, and after intragastrical administration for 28 d at a dose of 20 mL/kg, the animal was sacrificed at the 29th day.
(§4) Group and dose: Sham group, Model group, Positive control group, prednisone acetate (5 mg/kg) group, Test group 1: picrinine, vallesamine, scholaricine and 19-epischolaricine prepared in Example 1.7 were mixed at different ratios by weight (50 mg/kg), Test group 2: the alkaloid composition (25 mg/kg) prepared in Example 1.5, Test group 3: the alkaloid composition (12.5 mg/kg) prepared in Example 1.6, Picrinine group (5.0 mg/kg), Vallesamine group (3.0 mg/kg), Scholaricine group (3.5 mg/kg), and 19-epischolaricine group (1.0 mg/kg).
(§5) Positive control drug: prednisone acetate tablet, Approval number: H33021207, 5 mg/tablet, produced by Zhejiang Xianju Pharmaceutical Co., Ltd., Batch No. 140146.
as §1
Group and dose: in Test group 1, the ratio of picrinine, vallesamine, scholaricine and 19-epischolaricine by weight was 45:38:30:8, and the other groups and doses thereof were as described in Example 12.
Test index: KL-6 in serum was used as index, and was determined by enzyme linked immunosorbent assay.

The subject of assay [3] is SOD in serum and homogenate of pulmonary fibrosis model mouse. Kind of assay: Effect on SOD in serum and homogenate of pulmonary fibrosis model mouse. The following applies: bleomycin pulmonary fibrosis mouse, ig 28 d, dose/kg: prednisone acetate 5 mg, Test group 1 50, 2 25, 3 12.5, picrinine 5.0, vallesamine 3.0, scholaricine 3.5, 19-epi-scholaricine 1.0 mg, x ± SD. The method, then: as §2, §3, §4, §5, §1
Group and dose: in Test group 1, the ratio of picrinine, vallesamine, scholaricine and 19-epischolaricine by weight was 10:7:7:2, and the other groups and doses thereof were as described in Example 12.
Test index: SOD in serum and homogenate was used as index, and was determined by xanthine oxidase method.

The test system of assay [4] is Col-1 in homogenate of pulmonary fibrosis model mouse. Briefly: Effect on Col-1 in homogenate of pulmonary fibrosis model mouse. The conditions noted are these: ELISA, bleomycin pulmonary fibrosis mouse, ig 28 d, dose/kg: prednisone acetate 5 mg, Test group 1 50, 2 25, 3 12.5, picrinine 5.0, vallesamine 3.0, scholaricine 3.5, 19-epi-scholaricine 1.0 mg, x ± SD. The method, then: as §2, §3, §4, §5, §1
Group and dose: in Test group 1, the ratio of picrinine, vallesamine, scholaricine and 19-epischolaricine by weight was 20:17:17:4, and the other groups and doses thereof were as described in Example 12.
Test index: Col-1 in homogenate was used as index, and was determined by enzyme linked immunosorbent assay.

Assay [5] relates to MDA in serum and homogenate of pulmonary fibrosis model mouse. Kind of assay: Effect on MDA in serum and homogenate of pulmonary fibrosis model mouse. The conditions noted are these: bleomycin pulmonary fibrosis mouse, ig 28 d, dose/kg: prednisone acetate 5 mg, Test group 1 50, 2 25, 3 12.5, picrinine 5.0, vallesamine 3.0, scholaricine 3.5, 19-epi-scholaricine 1.0 mg, x ± SD. The method, then: as §2, §3, §4, §5, §1
Group and dose: in Test group 1, the ratio of picrinine, vallesamine, scholaricine and 19-epischolaricine by weight was 8:5:5:1, and the other groups and doses thereof were as described in Example 12.
Test index: MDA in serum and homogenate was used as index, and was determined by thiobabituric acid method.

Regarding `C/C=C1/CN2[C@@H]3C[C@@]45c6ccccc6N[C@]4(O3)[C@@H]2C[C@@H]1[C@H]5C(=O)OC` [picrinine], the CRP in assay [1] came out at 23.5 ± 2.2 pg/mL. Besides, in assay [2], the KL-6 came out at 3.91 ± 0.60 U/mg prot. Moreover, the “SOD homogenate” value in assay [3] (homogenate) is 53.2 ± 8.9 U/mg prot. Also, in assay [3] (serum), the “SOD Serum” value stood at 17.2 ± 5.1 U/mg prot.
On to `COC(=O)C1=C2Nc3c(O)cccc3[C@@]23CCN2C[C@@H]([C@H](C)O)[C@@H]1C[C@H]23` [19-epi-scholaricine, 19-epischolaricine], for which, in assay [2], the KL-6 is listed as 4.10 ± 0.97 U/mg prot. The compound further gave a Col-1 in assay [4] of 6.5 ± 2.2 μg/g prot. Moreover, in assay [5] (homogenate), the “MDA Homogenate” value worked out at 22.0 ± 7.4 nmol/mg prot. For the same compound, the “MDA Serum” value in assay [5] (serum) is given as 0.66 ± 0.18 nmol/mg prot.
Take `C/C=C1/CN2CC[C@@H]1[C@@](CO)(C(=O)OC)c1[nH]c3ccccc3c1C2` [vallesamine]: the CRP in assay [1] is given as 23.8 ± 1.9 pg/mL. Further, the Col-1 in assay [4] is reported as 6.3 ± 2.7 μg/g prot.
